The results in this text go back to publication PMC11215771 (Journal of Medicinal Chemistry, 2024).

The structures appear in SMILES notation.

Data set [1] has as its target T1, recombinant BACE1 extracellular domain (Homo sapiens, UniProt P56817).
T1 construct: purchased Thermo Fisher Scientific P2985
The experiment in a line: FRET-based BACE1 inhibition (BACE1-activity FRET) assay. It is filed as biochemical. How it is done: In addition, we performed a fluorescence resonance energy transfer (FRET)-based BACE1 inhibition assay using the recombinant BACE1 extracellular domain and a BACE1 substrate coupled to a donor fluorophore, which is unquenched […] to the activity of BACE1. […] (Figure 1F).
Protease activity was determined using a FRET-based assay with recombinant BACE1 protein (Thermo Fisher Scientific; P2985). BACE1 inhibition was determined in end-points assays according to the manufacturer’s protocol except using a reduced volume of 12 μL in 384-well plates (Greiner, 788896). […] Fluorescence intensities were quantified with an infinite 200pro reader (Tecan) using top-reading mode. Data points were approximated using a logistic fit to determine half-inhibitory concentrations (pIC50).

Data set [2] addresses T2, hBACE1 D289N (proteolytic inactive mutant) in HEK293T cells (Homo sapiens, UniProt P56817, D289N).
T2 construct: expressed in transfected cells; host or cells: HEK293T
The experiment in a line: Staining of transfected HEK293T cells, confocal imaging: BACE1 D289N. The class given is cell-based. How it is done: (§1) Next, we explored the performance of the new Alexa-C3 compounds in living cells. Because of the rather hydrophilic properties, we exclusively targeted the cell membrane. To prevent intracellular accumulation, we first performed stainings at 4 °C arresting ATP-dependent endocytosis. […] All of the constructs were tagged at the C-terminus with either EGFP or mCherry to visualize subcellular expression. […] With these experiments, we want to exclude that a lack of staining is caused by an impaired accessibility of the protein by Alexa-C3 compounds. […] We then tested samples with BACE1 expression after fixation of the cells with paraformaldehyde (PFA).
(§2) (D) All conjugates were also probed on cells fixed with 4% paraformaldehyde (PFA) for 15 min prior to staining. […] Scale bars represent 5 μm (A–D) and 20 μm (E). […] Samples were excited at 488, 561, and 633 nm, respectively.
(§3) HEK293T cells (ATCC accession number CRL-11268) were maintained in Dulbecco's modified Eagle's medium (Sigma-Aldrich D6046) with 1g/L glucose, supplemented with 10% FCS (Merck) and 1% penicillin/streptomycin (PAA). CHO-K1 cells (ATCC #CCL-61) were maintained in modified phenol red free RPMI-1640 medium (Sigma-Aldrich, R7509), supplemented with 2 mM L-glutamine (Sigma-Aldrich, G7513), and 10% FCS (Merck). Cells were cultured at 37 °C in a 5% CO2 atmosphere. The following plasmids were used for transfection with the amount of DNA indicated (per 35 mm Petri dish): hBACE1 (NM_012104.4), 50 ng for single molecule recordings, 200 ng otherwise; hBACE1 fused to EGFP or mCherry, 75 ng; hBACE1 D289N fused to EGFP or mCherry, 75 ng; hBACE1 D289N, 200–400 ng; hBACE2 (NM_012105.3) fused to EGFP, 75 ng; hCathepsinD (HsCD00438327), Harvard PlasmID, 75 ng. Transfection was performed 24 h after plating using jetPEI (Polyplus) according to the manufacturer’s protocol.
For labeling, we plated HEK293T cells onto sterile 18 mm 1.5H borosilicate coverslips (VWR), coated with poly-D-lysine (Sigma). […]

A short description of data set [3]: FCS of free Alexa-C3 in HBS in the absence of BACE1. The settings on record: 100 nM in HBS, pH 5, no BACE1, mean ± SD.
Data set [4] concerns the target T3, hBACE1 fused to EGFP or mCherry in HEK293T cells (Homo sapiens, UniProt P56817).
T3 construct: expressed in transfected cells; host or cells: HEK293T
As to the kind of experiment: Staining of transfected HEK293T cells, confocal imaging: BACE1. It is filed as cell-based. The settings on record: for staining of BACE1 after preincubation with unconjugated C3: living HEK293T, preincubation with 2 μM C3. As to the method: as §1, §2, §3
For labeling, we plated HEK293T cells onto sterile 18 mm 1.5H borosilicate coverslips (VWR), coated with poly-D-lysine (Sigma). […] In addition, some cells were also fixed with 4% PFA or permeabilized with HBS + 50 μg/mL of Saponin for 15 min prior to staining as stated in the figure legend. After staining, live cells were washed with HBS twice. Confocal imaging was conducted at room temperature in HBS using the 63× objective and the pinhole set to 1 AU. Confocal imaging was performed 24 h after transfection.

T1 sequence (P56817 46-457 limits assumed): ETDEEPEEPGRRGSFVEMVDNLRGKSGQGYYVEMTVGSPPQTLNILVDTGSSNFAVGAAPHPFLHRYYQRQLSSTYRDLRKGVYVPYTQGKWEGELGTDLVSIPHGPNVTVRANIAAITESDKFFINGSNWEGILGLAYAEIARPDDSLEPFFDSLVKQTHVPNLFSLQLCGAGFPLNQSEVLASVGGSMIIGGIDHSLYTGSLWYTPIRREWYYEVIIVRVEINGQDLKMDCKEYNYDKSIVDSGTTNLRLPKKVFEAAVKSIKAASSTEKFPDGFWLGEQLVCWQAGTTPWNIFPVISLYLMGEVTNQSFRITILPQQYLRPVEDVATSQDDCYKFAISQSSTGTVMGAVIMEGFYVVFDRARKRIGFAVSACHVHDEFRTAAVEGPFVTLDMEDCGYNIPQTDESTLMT
T3 sequence (P56817 46-501): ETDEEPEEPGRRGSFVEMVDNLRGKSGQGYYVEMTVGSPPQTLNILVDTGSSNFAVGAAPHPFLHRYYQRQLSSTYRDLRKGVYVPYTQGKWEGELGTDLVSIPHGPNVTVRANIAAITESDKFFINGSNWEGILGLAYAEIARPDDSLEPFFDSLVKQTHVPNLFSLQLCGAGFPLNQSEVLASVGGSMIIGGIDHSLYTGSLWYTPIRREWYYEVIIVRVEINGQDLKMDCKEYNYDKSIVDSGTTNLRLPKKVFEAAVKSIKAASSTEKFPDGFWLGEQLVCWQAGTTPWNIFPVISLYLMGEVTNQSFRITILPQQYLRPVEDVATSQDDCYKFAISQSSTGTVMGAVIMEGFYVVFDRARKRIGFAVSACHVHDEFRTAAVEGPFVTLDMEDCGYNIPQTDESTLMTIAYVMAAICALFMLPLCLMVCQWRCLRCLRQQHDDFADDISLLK
T2 sequence (P56817 46-501 D289N): as the sequence (P56817 46-501) above, with D244N counted along it

Regarding `C[C@@H](NC(=O)c1cc(C(=O)N[C@@H](Cc2ccccc2)[C@H](O)CNC2CC2)cc(N(C)S(=O)(=O)CCCNC(=O)CCCCCC2(C)C(/C=C/C=C/C=C3/N(CCCS(=O)(=O)O)c4ccc(S(=O)(=O)O)cc4C3(C)C)=[N+](CCCS(=O)(=O)[O-])c3ccc(S(=O)(=O)O)cc32)c1)c1ccccc1` (stereo partly drawn), the “impairment of affinity to the catalytic center by dye attachment” value in data set [1] (compared with unconjugated C3) was 10 fold. In data set [1] (logistic fit, n = 3 for each compound), the “pIC50 (negative logarithm of the half-inhibitory concentration)” value is 6.53 (95% CI: 6.05–7.05). Also, in data set [2], the “staining of BACE1 D289N” value is reported as “not labeled”. Also, the “diffusion time constant of free probe” value in data set [3] worked out at 53 ± 18 μs. Moreover, the “specificity in permeabilized cells” value in data set [4] (50 μg/mL saponin prior to staining, 100 nM probe) is reported as “the same specificity was observed”. Further, in data set [4] (HEK293T fixed with 4% PFA for 15 min prior to staining), the “staining of BACE1 after fixation with PFA” value is reported as “did not yield a considerable signal”. Also, the “staining of BACE1 after preincubation with unconjugated C3” value in data set [4] was “absence of any staining”.
As to `C[C@@H](NC(=O)c1cc(C(=O)N[C@@H](Cc2ccccc2)[C@H](O)CNC2CC2)cc(N(C)S(=O)(=O)CCCNC(=O)c2ccc(C(=O)O)c(-c3c4ccc(=N)c(S(=O)(=O)O)c-4oc4c(S(=O)(=O)O)c(N)ccc34)c2)c1)c1ccccc1` [2-(6-Amino-3-iminio-4,5-disulfo-3H-xanthen-9-yl)-4-((3-(N-(3-(((2S,3R)-4-(cyclopropylamino)-3-hydroxy-1-phenylbutan-2-yl)carbamoyl)-5-(((R)-1-phenylethyl)carbamoyl)phenyl)-N-methylsulfamoyl)propyl)carbamoyl)benzoate], in data set [1] (compared with unconjugated C3), the “increase of potency of the pIC50 in a cell-free assay vs parent C3” value came out at 10 fold. Moreover, the IC50 in data set [1] (logistic fit, n = 3 for each compound, read-out: pIC50 (negative logarithm of the half-inhibitory concentration) (converted)) is 1.86 nM. Also, the “staining of BACE1 D289N” value in data set [2] is “no appreciable fluorescence”. Further, the “diffusion time constant of free probe” value in data set [3] stood at 35 ± 3 μs. Further, the “staining of BACE1 after preincubation with unconjugated C3” value in data set [4] is on record as “no appreciable fluorescence”.
